Patent US20030237103A1, “Methods and compositions for pharmacological and toxicological evaluation of test agents” (priority 2002, published 2003)

How the values were obtained:
[1] = test system: Panel and outbred (CD-IGS) rat strains; assay: Clinical chemistry endpoints of cisplatin-treated vs. vehicle rats; assay type: in vivo; parameters: T-test value AST / T-test value ALT: unit not given here; details: cisplatin 5 mg/Kg vs. vehicle
[2] = test system: Panel and outbred (CD-IGS) rat strains; assay: Proteinuria, glucose excretion and renal histology after cisplatin; assay type: in vivo; details: 5 mg/Kg cisplatin
[3] = test system: rat liver peroxisomal fatty-acyl CoA oxidase; assay: Fluorometric assay of liver peroxisomal fatty-acyl CoA oxidase (FAO) activity after clofibrate; assay type: in vivo; details: CD-IGS rats
Description: Peroxisomal fractions from livers of each strain were measured for FAO activity. In order to account for intra-strain variability, graphed are the average values derived by subtracting the vehicle FAO (average) from each individual drug induced FAO. The y-axis represents the FAO activity (nmol H2O2 per minute-mg peroximal protein).
The assay was done by using a fluorometric assay for rat liver peroxisomal fafty-acyl CoA oxidase activity (FAO). The first step of this assay uses a palmitoyl-CoA dependent NAD+ reducing system to oxidize FAO and produce H2O2. The H2O2 is then coupled in a peroxidase catalyzed reaction to the oxidation of scopoletin, a naturally fluorescent compound. A fall in fluorescence of the sample indicates an increase in FAO activity which subsequently reflects the increase in the fatty acid oxidase in the liver.
Six clofibrate samples and four vehicle samples were individually tested for FAO activity in duplicate tests. Using an H2O2 standard curve enables the change in fluorescence to be converted to FAO activity units (Walusimbi-Kisitu, M. and E. H. Harrison, J. Lipid Res. 24(8):1077-1084, 1983).

[4] = test system: Panel, CD-IGS and parental rat strains; assay: Plasma triglyceride lowering by clofibrate; assay type: in vivo; details: between WKY×LEW, WKY×BN and WKY×F344; 250 mg/Kg
Description: Triglyceride levels in plasma were measured following euthanasia on day 7. Plotted are the percent differences in triglyceride values in a particular drug treatment group.

[5] = test system: Panel, CD-IGS and parental rat strains; details: in vivo, 250 mg/kg
Description: Alanine transferase (ALT) levels in plasma an index of liver damage were measured in outbred and inbred strains (top panel) and the Panel F1 hybrids (bottom panel) following euthanasia on day 7. Plotted are the average ALT values for drug (left) and vehicle (right) within a particular drug treatment group (designated by strain). The number of animals tested in each group is denoted below the strain designation in parenthesis as # drug treated animas/#vehicle treated animals.
We delivered the clofibrate orally by gavage (250 mg/Kg in hydroxyproply methyl cellulose) to the rats on 6 consecutive days.

[6] = test system: Panel, CD-IGS and parental rat strains; assay: Liver histology after clofibrate; assay type: in vivo
Source text: Hypolipidemic drugs, such as clofibrate, commonly induce peroxisomal proliferation and an increase in the activity of peroxisomal beta-oxidation pathway. We looked for these changes in our rats by histological analysis of a section of the left lateral lobe from livers of either clofibrate or vehicle treated rats. While we could detect cellular differences (e.g. hepatocelluar hypertrophy, hepatocellular vacuolization, anisokaryosis and portal lymphocytic infiltrates) among the clofibrate treated livers versus the vehicle controls within any strain.

N.N.[Cl][Pt][Cl] [cisplatin]
T-test value ALB ([1]; BNxF344 rats): 0.111
T-test value ALP ([1]; BNxF344 rats): 0.157
T-test value ALT ([1]; BNxF344 rats): 0.600
T-test value ANION GAP ([1]; BNxF344 rats): 0.069
T-test value AST ([1]; BNxF344 rats): 0.780
T-test value BICARB ([1]; BNxF344 rats): 0.003
T-test value BUN ([1]; BNxF344 rats): 0.002
T-test value CA ([1]; BNxF344 rats): 0.642
T-test value CHOL ([1]; BNxF344 rats): 0.001
T-test value CREAT ([1]; BNxF344 rats): 0.001
T-test value GGT ([1]; BNxF344 rats): 0.351
T-test value GLOB ([1]; BNxF344 rats): 0.116
T-test value GLU ([1]; BNxF344 rats): 0.477
T-test value K ([1]; BNxF344 rats): 0.133
T-test value NA ([1]; BNxF344 rats): 0.851
T-test value PHOS ([1]; BNxF344 rats): 0.230
T-test value TBILI ([1]; BNxF344 rats): 0.005
T-test value TP ([1]; BNxF344 rats): 0.877
T-test value TRIG ([1]; BNxF344 rats): 0.153
T-test value ALB ([1]; CD-IGS rats): 0.096
T-test value ALP ([1]; CD-IGS rats): 0.567
T-test value ALT ([1]; CD-IGS rats): 0.732
T-test value ANION GAP ([1]; CD-IGS rats): 0.440
T-test value AST ([1]; CD-IGS rats): 0.433
T-test value BICARB ([1]; CD-IGS rats): 0.436
T-test value BUN ([1]; CD-IGS rats): 0.003
T-test value CA ([1]; CD-IGS rats): 0.268
T-test value CHOL ([1]; CD-IGS rats): 0.393
T-test value CREAT ([1]; CD-IGS rats): 0.002
T-test value GGT ([1]; CD-IGS rats): 0.351
T-test value GLOB ([1]; CD-IGS rats): 0.750
T-test value GLU ([1]; CD-IGS rats): 0.965
T-test value K ([1]; CD-IGS rats): 0.465
T-test value NA ([1]; CD-IGS rats): 0.095
T-test value PHOS ([1]; CD-IGS rats): 0.943
T-test value TBILI ([1]; CD-IGS rats): 0.742
T-test value TP ([1]; CD-IGS rats): 0.080
T-test value TRIG ([1]; CD-IGS rats): 0.133
T-test value ALB ([1]; LEWxBN rats): 0.000
T-test value ALP ([1]; LEWxBN rats): 0.001
T-test value ALT ([1]; LEWxBN rats): 0.593
T-test value ANION GAP ([1]; LEWxBN rats): 0.058
T-test value AST ([1]; LEWxBN rats): 0.341
T-test value BICARB ([1]; LEWxBN rats): 0.016
T-test value BUN ([1]; LEWxBN rats): 0.000
T-test value CA ([1]; LEWxBN rats): 0.333
T-test value CHOL ([1]; LEWxBN rats): 0.000
T-test value CREAT ([1]; LEWxBN rats): 0.000
T-test value GGT ([1]; LEWxBN rats): 0.339
T-test value GLOB ([1]; LEWxBN rats): 0.007
T-test value GLU ([1]; LEWxBN rats): 0.024
T-test value K ([1]; LEWxBN rats): 0.036
T-test value NA ([1]; LEWxBN rats): 0.230
T-test value PHOS ([1]; LEWxBN rats): 0.063
T-test value TBILI ([1]; LEWxBN rats): 0.463
T-test value TP ([1]; LEWxBN rats): 0.148
T-test value TRIG ([1]; LEWxBN rats): 0.085
T-test value ALB ([1]; LEWxF344 rats): 0.534
T-test value ALP ([1]; LEWxF344 rats): 0.214
T-test value ALT ([1]; LEWxF344 rats): 0.979
T-test value ANION GAP ([1]; LEWxF344 rats): 0.711
T-test value AST ([1]; LEWxF344 rats): 0.739
T-test value BICARB ([1]; LEWxF344 rats): 0.596
T-test value BUN ([1]; LEWxF344 rats): 0.000
T-test value CA ([1]; LEWxF344 rats): 0.448
T-test value CHOL ([1]; LEWxF344 rats): 0.000
T-test value CREAT ([1]; LEWxF344 rats): 0.000
T-test value GLOB ([1]; LEWxF344 rats): 0.361
T-test value GLU ([1]; LEWxF344 rats): 0.695
T-test value K ([1]; LEWxF344 rats): 0.152
T-test value NA ([1]; LEWxF344 rats): 0.738
T-test value PHOS ([1]; LEWxF344 rats): 0.831
T-test value TBILI ([1]; LEWxF344 rats): 0.663
T-test value TP ([1]; LEWxF344 rats): 0.492
T-test value TRIG ([1]; LEWxF344 rats): 0.540
T-test value ALB ([1]; Panel (all six strains)): 0.000
T-test value ALP ([1]; Panel (all six strains)): 0.000
T-test value ALT ([1]; Panel (all six strains)): 0.693
T-test value ANION GAP ([1]; Panel (all six strains)): 0.014
T-test value AST ([1]; Panel (all six strains)): 0.227
T-test value BICARB ([1]; Panel (all six strains)): 0.000
T-test value BUN ([1]; Panel (all six strains)): 0.000
T-test value CA ([1]; Panel (all six strains)): 0.974
T-test value CHOL ([1]; Panel (all six strains)): 0.000
T-test value CREAT ([1]; Panel (all six strains)): 0.000
T-test value GGT ([1]; Panel (all six strains)): 0.024
T-test value GLOB ([1]; Panel (all six strains)): 0.016
T-test value GLU ([1]; Panel (all six strains)): 0.561
T-test value K ([1]; Panel (all six strains)): 0.000
T-test value NA ([1]; Panel (all six strains)): 0.414
T-test value PHOS ([1]; Panel (all six strains)): 0.004
T-test value TBILI ([1]; Panel (all six strains)): 0.027
T-test value TP ([1]; Panel (all six strains)): 0.487
T-test value TRIG ([1]; Panel (all six strains)): 0.058
T-test value ALB ([1]; WKYxBN rats): 0.337
T-test value ALP ([1]; WKYxBN rats): 0.956
T-test value ALT ([1]; WKYxBN rats): 0.222
T-test value ANION GAP ([1]; WKYxBN rats): 0.485
T-test value AST ([1]; WKYxBN rats): 0.189
T-test value BICARB ([1]; WKYxBN rats): 0.649
T-test value BUN ([1]; WKYxBN rats): 0.001
T-test value CA ([1]; WKYxBN rats): 0.064
T-test value CHOL ([1]; WKYxBN rats): 0.000
T-test value CREAT ([1]; WKYxBN rats): 0.002
T-test value GGT ([1]; WKYxBN rats): 0.170
T-test value GLOB ([1]; WKYxBN rats): 0.007
T-test value GLU ([1]; WKYxBN rats): 0.968
T-test value K ([1]; WKYxBN rats): 0.014
T-test value NA ([1]; WKYxBN rats): 0.165
T-test value PHOS ([1]; WKYxBN rats): 0.081
T-test value TBILI ([1]; WKYxBN rats): 0.379
T-test value TP ([1]; WKYxBN rats): 0.458
T-test value TRIG ([1]; WKYxBN rats): 0.210
T-test value ALB ([1]; WKYxF344 rats): 0.001
T-test value ALP ([1]; WKYxF344 rats): 0.000
T-test value ALT ([1]; WKYxF344 rats): 0.604
T-test value ANION GAP ([1]; WKYxF344 rats): 0.868
T-test value AST ([1]; WKYxF344 rats): 0.934
T-test value BICARB ([1]; WKYxF344 rats): 0.004
T-test value BUN ([1]; WKYxF344 rats): 0.000
T-test value CA ([1]; WKYxF344 rats): 0.037
T-test value CHOL ([1]; WKYxF344 rats): 0.004
T-test value CREAT ([1]; WKYxF344 rats): 0.000
T-test value GLOB ([1]; WKYxF344 rats): 0.007
T-test value GLU ([1]; WKYxF344 rats): 0.155
T-test value K ([1]; WKYxF344 rats): 0.583
T-test value NA ([1]; WKYxF344 rats): 0.872
T-test value PHOS ([1]; WKYxF344 rats): 0.282
T-test value TBILI ([1]; WKYxF344 rats): 0.008
T-test value TP ([1]; WKYxF344 rats): 0.054
T-test value TRIG ([1]; WKYxF344 rats): 0.041
T-test value ALB ([1]; WKYxLEW rats): 0.453
T-test value ALP ([1]; WKYxLEW rats): 0.342
T-test value ALT ([1]; WKYxLEW rats): 0.874
T-test value ANION GAP ([1]; WKYxLEW rats): 0.033
T-test value AST ([1]; WKYxLEW rats): 0.689
T-test value BICARB ([1]; WKYxLEW rats): 0.266
T-test value BUN ([1]; WKYxLEW rats): 0.009
T-test value CA ([1]; WKYxLEW rats): 0.870
T-test value CHOL ([1]; WKYxLEW rats): 0.019
T-test value CREAT ([1]; WKYxLEW rats): 0.025
T-test value GGT ([1]; WKYxLEW rats): 0.363
T-test value GLOB ([1]; WKYxLEW rats): 0.057
T-test value GLU ([1]; WKYxLEW rats): 0.289
T-test value K ([1]; WKYxLEW rats): 0.137
T-test value NA ([1]; WKYxLEW rats): 1.000
T-test value PHOS ([1]; WKYxLEW rats): 0.055
T-test value TBILI ([1]; WKYxLEW rats): 0.364
T-test value TP ([1]; WKYxLEW rats): 0.008
T-test value TRIG ([1]; WKYxLEW rats): 0.677
degree of proteinuria, glucose excretion and histologic damage to renal proximal tubules between the strains [2]: marked differences

CCOC(=O)C(C)(C)Oc1ccc(Cl)cc1 [clofibrate]
hepatotoxic effects relative to other strains (FAO activity) [3]: resistant
variation in magnitude of the fall in plasma triglyceride levels [4]: 3 fold
AST levels (predictor of liver toxicity) [5]: not significantly affected
liver hypertrophy ([6]; all the strains): hypertrophy of the liver
histopathology differences between the strains within the Panel ([6]; left lateral lobe sections, clofibrate vs. vehicle): no quantitative differences
